# Experimental data from patent US20250154135A1, “M-CHOLINE RECEPTOR AGONIST COMPOUND, PREPARATION METHOD THEREFOR AND USE THEREOF” (NANJING GRITPHARMA CO., LTD., priority 2022, published 2025).
# Legend:
# rabbit pupil [1] = assay: Miosis effect of 0.915% compound solutions in rabbits (Test Example 4); assay type: in vivo; conditions: at half of the concentration of the pilocarpine hydrochloride
# Protocol: Each rabbit in each group was subjected to single eye drop administration in the left eye, with an administration volume of 100 μL. The pupil and iris diameters of the left eye of the rabbits were measured at time points of −0.5 h (i.e., half an hour before administration), 0.5 h, 3 h, and 4 h relative to administration (observation time points were extended if necessary), with the measurement performed 5 times for each rabbit at each time point. The entire measurement process was completed by the same person.
# • Reagents: normal saline (specification: 500 mL: 4.5 g), purchased from Jiangxi Kelun Pharmaceutical Co., Ltd.; • compound 1 and compound 2 (from Nanjing Jiqun Pharmaceutical Technology Co., Ltd.); • 1) a compound 1 solution at a concentration of 0.915% prepared using normal saline; • 2) a compound 2 solution at a concentration of 0.915% prepared using normal saline.
# The miosis effects of the 0.915% compound 1 solution and the 0.915% compound 2 solution were determined using the method in Test Example 2, and the determination results are shown in Tables 4-1 and 4-2 below.
# [2] = Determination of salt-forming ratios of pilocarpine salt formulations (HPLC); assay type: physicochemical; conditions: for salt-forming ratios of the formulations: different conditions
# Protocol: The determination of the salt-forming ratios of the pilocarpine salt formulations was performed using high-performance liquid chromatography with the following conditions: chromatographic column: C18 column; sample injection volume: 10 μL; mobile phase: K2HPO4 (adjusted to pH 6.50±0.1 with phosphoric acid)-methanol-acetonitrile (63:2:35); flow rate: 0.7 mL/min; column temperature: 30° C.; detection wavelength: 215 nm; […] determination was performed, and the salt-forming ratios were calculated according to the peak areas of free acid radicals and pilocarpine.
# The samples were separately injected to determine the salt-forming ratios of different compound 1 formulations. Meanwhile, the salt-forming ratios of the compound 1 formulation solutions with different pH values under different conditions were determined using the above stability examination methods.
# The samples were separately injected to determine the salt-forming ratios of different compound 2 formulations. Meanwhile, the salt-forming ratios of the compound 2 formulation solutions with different pH values under different conditions were determined using the above stability examination methods.
# rabbit pupil [3] = assay: Rabbit pupil constriction after single eye drop (Test Example 1); assay type: in vivo, New Zealand rabbit; conditions: rabbits, Test Example 1 solutions
# Protocol: Except for group 5), the eye drop solutions of groups 1) to 12) described above contained an equimolar concentration of pilocarpine. The molar concentration of pilocarpine in the eye drop solution of group 5) was half of the molar concentration of pilocarpine in the solutions of the other 11 groups.
# The effects of the eye drop solutions of groups 1) to 12) prepared above on rabbit pupil constriction and irritation were tested separately.
# • Species and strain: New Zealand rabbit • Grade: normal • Source: Qinglongshan Animal Breeding Farm, Jiangning District, Nanjing • Production license No.: SCXK (Su) 2016-0008 • Animal age: about 110 days old at the time of administration • Animal body weight: about 2.5-3.5 kg at the time of administration • Animal sex: all male • Feed: rabbit pellet feed • Housing conditions: air-conditioned room, with a temperature of 18-26° C. and a relative humidity of 40%-80%.
# • Digital vernier caliper: specification: 0-150 mm; measurement accuracy: 0.01 mm; manufacturer: Guilin Guanglu Measuring Instrument Co., Ltd.
# Each rabbit was subjected to eye drop administration in the left eye (using a pipette), with an administration volume of 100 μL.
# • Number of animals: for JQ series compounds, 6 rabbits per compound; for compounds 1, 2 and 4, 5 rabbits per compound. • Administration schedule: single administration. Measurement indicators and time points: • for JQ series compounds, the pupil diameter of the left eye of the rabbits was measured at time points of −0.5 h (i.e., half an hour before administration), 5 min, 10 min, 15 min, 0.5 h, 3 h and 4 h relative to administration, with the measurement repeated 3 times for each rabbit at each time point (measurement time points were extended if necessary); • for compounds 1, 2 and 4, the pupil diameter of the left eye of the rabbits was measured at time points of 3 h and 4 h relative to administration, with the measurement repeated 3 times for each rabbit at each time point (measurement time points were extended if necessary).
# Percentage change in pupil diameter (%) after administration=(pupil diameter after administration−pupil diameter before administration)/pupil diameter before administration×100%
# The measurement result for each rabbit at each time point was represented by the average value of three measurements.
# [4] = formulation pH 4.8, 40° C./10 d
# [5] = formulation pH 4.8, 60° C./10 d
# [6] = formulation pH 4.8, Light irradiation/5 d
# [7] = formulation pH 4.8, Light irradiation/10 d
compound,measurement,setting,value
CC[C@@H]1C(=O)OC[C@@H]1Cc1cncn1C [Compound 1],miosis effect compared to pilocarpine hydrochloride,rabbit pupil [1],comparable to the effect of pilocarpine hydrochloride
same,salt-forming ratios of the formulations,[2],substantially stable
same,Salt-forming ratio,"[2]; formulation pH 3.6, 0 d",1.19
same,Salt-forming ratio,"[2]; formulation pH 3.6, 40° C./5 d",1.08
same,Salt-forming ratio,"[2]; formulation pH 3.6, 40° C./10 d",1.09
same,Salt-forming ratio,"[2]; formulation pH 3.6, 60° C./5 d",1.15
same,Salt-forming ratio,"[2]; formulation pH 3.6, 60° C./10 d",1.24
same,Salt-forming ratio,"[2]; formulation pH 3.6, Light irradiation/5 d",1.06
same,Salt-forming ratio,"[2]; formulation pH 3.6, Light irradiation/10 d",1.06
same,Salt-forming ratio,"[2]; formulation pH 4.1, 0 d",1.03
same,Salt-forming ratio,"[2]; formulation pH 4.1, 40° C./5 d",1.06
same,Salt-forming ratio,"[2]; formulation pH 4.1, 40° C./10 d",1.06
same,Salt-forming ratio,"[2]; formulation pH 4.1, 60° C./5 d",1.09
same,Salt-forming ratio,"[2]; formulation pH 4.1, 60° C./10 d",1.10
same,Salt-forming ratio,"[2]; formulation pH 4.1, Light irradiation/5 d",1.04
same,Salt-forming ratio,"[2]; formulation pH 4.1, Light irradiation/10 d",1.04
same,Salt-forming ratio,"[2]; formulation pH 4.7, 0 d",1.03
same,Salt-forming ratio,"[2]; formulation pH 4.7, 40° C./5 d",1.04
same,Salt-forming ratio,"[2]; formulation pH 4.7, 40° C./10 d",1.02
same,Salt-forming ratio,"[2]; formulation pH 4.7, 60° C./5 d",1.02
same,Salt-forming ratio,"[2]; formulation pH 4.7, 60° C./10 d",1.00
same,Salt-forming ratio,"[2]; formulation pH 4.7, Light irradiation/5 d",1.03
same,Salt-forming ratio,"[2]; formulation pH 4.7, Light irradiation/10 d",1.03
same,Salt-forming ratio,"[2]; formulation pH 4.8, 0 d",1.02
same,Salt-forming ratio,"[2]; formulation pH 4.8, 40° C./5 d",1.04
same,Salt-forming ratio,[2]; [4],1.02
same,Salt-forming ratio,"[2]; formulation pH 4.8, 60° C./5 d",0.99
same,Salt-forming ratio,[2]; [5],0.97
same,Salt-forming ratio,[2]; [6],1.03
same,Salt-forming ratio,[2]; [7],1.02
same,Salt-forming ratio,"[2]; formulation pH 5.1, 0 d",1.02
same,Salt-forming ratio,"[2]; formulation pH 5.1, 40° C./5 d",1.03
same,Salt-forming ratio,"[2]; formulation pH 5.1, 40° C./10 d",1.01
same,Salt-forming ratio,"[2]; formulation pH 5.1, 60° C./5 d",0.97
same,Salt-forming ratio,"[2]; formulation pH 5.1, 60° C./10 d",0.92
same,Salt-forming ratio,"[2]; formulation pH 5.1, Light irradiation/5 d",1.03
same,Salt-forming ratio,"[2]; formulation pH 5.1, Light irradiation/10 d",1.02
same,Salt-forming ratio,"[2]; formulation pH 5.6, 0 d",1.02
same,Salt-forming ratio,"[2]; formulation pH 5.6, 40° C./5 d",1.01
same,Salt-forming ratio,"[2]; formulation pH 5.6, 40° C./10 d",0.98
same,Salt-forming ratio,"[2]; formulation pH 5.6, 60° C./5 d",0.91
same,Salt-forming ratio,"[2]; formulation pH 5.6, 60° C./10 d",0.85
same,Salt-forming ratio,"[2]; formulation pH 5.6, Light irradiation/5 d",1.02
same,Salt-forming ratio,"[2]; formulation pH 5.6, Light irradiation/10 d",1.01
same,pupil constriction (miosis) effect at 3 h after administration,rabbit pupil [3],still showed miosis effect
CC[C@@H]1C(=O)OC[C@@H]1Cc1cncn1C [Compound 2],miosis effect compared to pilocarpine hydrochloride,rabbit pupil [1],comparable to the effect of pilocarpine hydrochloride
same,salt-forming ratios of the formulations,[2],substantially stable
same,Salt-forming ratio,"[2]; formulation pH 4.3, 0 d",1.25
same,Salt-forming ratio,"[2]; formulation pH 4.3, 40° C./5 d",1.14
same,Salt-forming ratio,"[2]; formulation pH 4.3, 40° C./10 d",1.15
same,Salt-forming ratio,"[2]; formulation pH 4.3, 60° C./5 d",1.17
same,Salt-forming ratio,"[2]; formulation pH 4.3, 60° C./10 d",1.23
same,Salt-forming ratio,"[2]; formulation pH 4.3, Light irradiation/5 d",1.12
same,Salt-forming ratio,"[2]; formulation pH 4.3, Light irradiation/10 d",1.13
same,Salt-forming ratio,"[2]; formulation pH 4.5, 0 d",1.00
same,Salt-forming ratio,"[2]; formulation pH 4.5, 40° C./5 d",1.02
same,Salt-forming ratio,"[2]; formulation pH 4.5, 40° C./10 d",1.01
same,Salt-forming ratio,"[2]; formulation pH 4.5, 60° C./5 d",1.02
same,Salt-forming ratio,"[2]; formulation pH 4.5, 60° C./10 d",1.01
same,Salt-forming ratio,"[2]; formulation pH 4.5, Light irradiation/5 d",1.01
same,Salt-forming ratio,"[2]; formulation pH 4.5, Light irradiation/10 d",1.01
same,Salt-forming ratio,"[2]; formulation pH 4.8, 0 d",1.00
same,Salt-forming ratio,"[2]; formulation pH 4.8, 40° C./5 d",1.01
same,Salt-forming ratio,[2]; [4],1.00
same,Salt-forming ratio,"[2]; formulation pH 4.8, 60° C./5 d",0.98
same,Salt-forming ratio,[2]; [5],0.96
same,Salt-forming ratio,[2]; [6],1.01
same,Salt-forming ratio,[2]; [7],1.01
same,Salt-forming ratio,"[2]; formulation pH 5.0, 0 d",1.00
same,Salt-forming ratio,"[2]; formulation pH 5.0, 40° C./5 d",1.00
same,Salt-forming ratio,"[2]; formulation pH 5.0, 40° C./10 d",0.99
same,Salt-forming ratio,"[2]; formulation pH 5.0, 60° C./5 d",0.95
same,Salt-forming ratio,"[2]; formulation pH 5.0, 60° C./10 d",0.92
same,Salt-forming ratio,"[2]; formulation pH 5.0, Light irradiation/5 d",1.00
same,Salt-forming ratio,"[2]; formulation pH 5.0, Light irradiation/10 d",1.00
same,Salt-forming ratio,"[2]; formulation pH 5.5, 0 d",0.99
same,Salt-forming ratio,"[2]; formulation pH 5.5, 40° C./5 d",0.98
same,Salt-forming ratio,"[2]; formulation pH 5.5, 40° C./10 d",0.97
same,Salt-forming ratio,"[2]; formulation pH 5.5, 60° C./5 d",0.90
same,Salt-forming ratio,"[2]; formulation pH 5.5, 60° C./10 d",0.85
same,Salt-forming ratio,"[2]; formulation pH 5.5, Light irradiation/5 d",1.00
same,Salt-forming ratio,"[2]; formulation pH 5.5, Light irradiation/10 d",1.00
same,pupil constriction (miosis) effect at 3 h after administration,rabbit pupil [3],still showed miosis effect
